Square brackets hold non-standard residues; d marks the D form. Peptide text beside a SMILES is read from it. * marks the point of attachment. Asu = N[C@@H](CCCCCC(=O)O)C(=O)O; dPip = O=C(O)[C@H]1CCCCN1; NHOH = ON*
Tests used:
[1] = target: T1, Histone deacetylase 11 (Homo sapiens) (UniProt Q96DB2); assay: Inhibition of HDAC11 (unknown origin) expressed in HEK293T cells at 100 uM relative to control; assay type: cell-based
T1 sequence (whole entry): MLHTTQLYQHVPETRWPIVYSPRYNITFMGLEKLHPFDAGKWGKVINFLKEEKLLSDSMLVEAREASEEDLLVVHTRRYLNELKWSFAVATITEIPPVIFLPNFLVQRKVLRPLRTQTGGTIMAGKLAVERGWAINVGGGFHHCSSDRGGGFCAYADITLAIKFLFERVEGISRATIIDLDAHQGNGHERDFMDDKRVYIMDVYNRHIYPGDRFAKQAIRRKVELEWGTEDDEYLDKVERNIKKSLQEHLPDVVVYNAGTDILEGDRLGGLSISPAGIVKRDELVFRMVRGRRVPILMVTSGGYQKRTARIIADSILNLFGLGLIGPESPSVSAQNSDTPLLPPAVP

[2] = target: T2, Histone deacetylase 11 (Homo sapiens, UniProt Q96DB2); assay: Inhibition of full length human recombinant HDAC11 using FAM-RHKK(tri-fluor-Ac)-NH2 as substrate by electrophoretic mobility shift assay
T2 sequence (Q96DB2 whole entry): T1 sequence (whole entry)

[3] = target: T3, Histone deacetylase 8 (Homo sapiens, UniProt Q9BY41); assay: Inhibition of human Flag-tagged HDAC8 expressed in HEK293T cells by fluorescence based analysis; assay type: cell-based
T3 sequence (Q9BY41 whole entry): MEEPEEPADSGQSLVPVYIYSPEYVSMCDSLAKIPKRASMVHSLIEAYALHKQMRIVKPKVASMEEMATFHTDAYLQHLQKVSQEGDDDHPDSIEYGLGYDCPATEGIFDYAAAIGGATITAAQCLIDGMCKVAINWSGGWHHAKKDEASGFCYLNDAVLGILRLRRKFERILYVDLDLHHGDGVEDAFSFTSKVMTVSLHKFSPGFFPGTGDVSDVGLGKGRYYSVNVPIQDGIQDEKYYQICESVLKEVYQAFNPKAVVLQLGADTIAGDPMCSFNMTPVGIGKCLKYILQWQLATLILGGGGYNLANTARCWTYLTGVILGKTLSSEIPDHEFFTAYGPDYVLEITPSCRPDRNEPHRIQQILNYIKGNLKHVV

[4] = target: T4, Protein deacetylase HDAC6 (Homo sapiens, UniProt Q9UBN7); assay: Inhibition of human recombinant HDAC6 using AMC-K(Ac)GL as substrate by fluorescence based assay
T4 sequence (Q9UBN7 whole entry): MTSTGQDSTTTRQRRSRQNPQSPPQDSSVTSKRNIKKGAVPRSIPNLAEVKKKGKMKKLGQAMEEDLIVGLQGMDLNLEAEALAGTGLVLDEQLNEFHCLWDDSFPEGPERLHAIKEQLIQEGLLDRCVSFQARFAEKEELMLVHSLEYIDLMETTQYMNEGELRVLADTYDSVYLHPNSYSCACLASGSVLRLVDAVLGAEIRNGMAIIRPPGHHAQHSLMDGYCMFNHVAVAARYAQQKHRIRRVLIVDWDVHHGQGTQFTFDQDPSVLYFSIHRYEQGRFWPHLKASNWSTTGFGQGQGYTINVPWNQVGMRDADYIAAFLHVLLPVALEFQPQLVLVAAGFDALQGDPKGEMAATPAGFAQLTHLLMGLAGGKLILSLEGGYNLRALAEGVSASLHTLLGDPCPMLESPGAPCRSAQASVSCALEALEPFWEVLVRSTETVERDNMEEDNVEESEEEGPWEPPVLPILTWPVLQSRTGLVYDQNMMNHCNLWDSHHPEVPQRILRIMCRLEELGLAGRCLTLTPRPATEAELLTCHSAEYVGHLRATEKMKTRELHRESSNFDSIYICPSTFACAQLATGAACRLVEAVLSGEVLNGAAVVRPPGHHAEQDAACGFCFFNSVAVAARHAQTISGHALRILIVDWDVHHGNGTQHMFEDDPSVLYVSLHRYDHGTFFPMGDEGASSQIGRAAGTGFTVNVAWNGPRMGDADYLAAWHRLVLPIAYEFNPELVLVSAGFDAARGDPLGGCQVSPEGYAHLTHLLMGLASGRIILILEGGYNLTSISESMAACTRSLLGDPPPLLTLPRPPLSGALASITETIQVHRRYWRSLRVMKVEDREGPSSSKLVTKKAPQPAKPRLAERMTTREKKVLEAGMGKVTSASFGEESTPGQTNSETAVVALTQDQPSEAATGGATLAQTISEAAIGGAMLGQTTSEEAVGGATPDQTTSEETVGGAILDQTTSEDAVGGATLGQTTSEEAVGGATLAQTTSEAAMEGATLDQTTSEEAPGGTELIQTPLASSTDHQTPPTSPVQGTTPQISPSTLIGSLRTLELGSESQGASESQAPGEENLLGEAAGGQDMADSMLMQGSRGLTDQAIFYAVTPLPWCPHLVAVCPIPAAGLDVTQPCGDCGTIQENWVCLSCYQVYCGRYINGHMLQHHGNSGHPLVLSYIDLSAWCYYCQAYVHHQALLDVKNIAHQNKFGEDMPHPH

[5] = target: T2, Histone deacetylase 11; assay: Inhibition of full length N-terminal GST-tagged human HDAC11
[6] = target: T2, Histone deacetylase 11; assay: Inhibition of HDAC11 (unknown origin)

Row | Compound | inhibition [1] | other results
1 | CCCC(=O)O | < 5% | 
2 | CCC(=O)O | < 10% | 
3 | CC(=O)O | < 10% | 
4 | CCCCCCCCCCCCCCCC(=O)O [PALMITIC ACID] |  | IC50 [2]: 900 µM
5 | CCCCCCCCCCCCCCCCNNC(=O)c1cccs1 |  | IC50 [3]: > 100 µM
6 | O=C(O)C(F)(F)F | < 5% | 
7 | CCCCCC(=O)O | < 20% | 
8 | CCCCCCCCCCCCCCCCNNC(=O)c1ccc(N(C)C)cc1 |  | IC50 [3]: > 100 µM
9 | CCCCCCCC(=O)O | < 20% | 
10 | Cn1c(/C=C/C(=O)NO)ccc1/C=C/C(=O)c1cccc(F)c1 |  | IC50 [4]: 8.4 µM
11 | O=C(O)CCCC[C@@H]1SC[C@@H]2NC(=O)N[C@@H]21 | < 20% | 
12 | CC[C@H](C)[C@@H]1NC(=O)[C@H](Cc2c[nH]c3ccccc23)NC(=O)[C@H](CCCCCC(=O)NO)NC(=O)[C@H]2CCCCN2C1=O (cyclo([Asu](NHOH)WI[dPip])) |  | IC50 [5]: 0.01 µM
13 | O=C(O)/C=C/c1ccc(-c2ccc(O)c(C34CC5CC(CC(C5)C3)C4)c2)cc1 [ADAROTENE] |  | IC50 [6]: > 10 µM
14 | O=C(O)CCCC[C@@H]1CCSS1 | < 20% | 

— ChEMBL document CHEMBL6071125, “Biological function and small molecule inhibitors of histone deacetylase 11” (Eur J Med Chem, 2024)
